# Results from patent US20230218548A1 (priority 2020, published 2023).
# Read-outs that look alike come from different tables or passages of the source.
# Columns and labels:
# SARS-CoV-2 = assay: microbe, parasite or virus in culture; assay type: cell-based, SARS-CoV-2 (USA-WA1/2020)
# [1] = biological target: SARS-CoV-2 envelope (E) protein (Severe acute respiratory syndrome coronavirus 2, UniProt P0DTC4); assay type: cell-based
# HeLa-ACE2 cells = assay type: cell-based; conditions: host cell toxicity, 24 h, read-out: HeLa-ACE2 EC50
# Procedure: Compounds were prepared and plated in 384-well plates as for the infection assay. HeLa-ACE2 cells were seeded in the assay-ready plates at 1.6×10^3 cells/well in assay medium, and plates were incubated for 24 h at 37° C. with 5% CO2. To assess cell viability, the Image-IT DEAD green reagent (Thermo Fisher, 110291) was used according to manufacturer's instructions. Cells were fixed with 4% paraformaldehyde (PFA) and counterstained with DAPI. Fixed cells were imaged using the ImageXpress Micro Confocal High-Content Imaging System (Molecular Devices) with a 10x objective, and total live cells per well quantified in the acquired images using the Live Dead Application Module (MetaXpress).
# The in vitro infection assay and the host cell cytotoxicity counterscreen data were uploaded to Genedata Screener, Version 16.0. Data were normalized to neutral (DMSO) […] inhibitor controls (2.5 μM remdesivir for antiviral effect, and 10 μM puromycin for infected host cell toxicity). For the uninfected host cell cytotoxicity counterscreen, 10 μM puromycin (Sigma) was used as a positive control. For dose-response experiments, compounds were tested in technical triplicates, and dose curves were fitted with the four parameter Hill Equation. Replicate data were analyzed using median condensing.
# ACE2 = ACE2 (Homo sapiens, UniProt Q9BYF1); assay: Mass spectrometry analysis of S-nitrosylated ACE2 protein; assay type: cell-based; conditions: after exposure to SNOC
# Chain of ACE2 (Q9BYF1 18-805): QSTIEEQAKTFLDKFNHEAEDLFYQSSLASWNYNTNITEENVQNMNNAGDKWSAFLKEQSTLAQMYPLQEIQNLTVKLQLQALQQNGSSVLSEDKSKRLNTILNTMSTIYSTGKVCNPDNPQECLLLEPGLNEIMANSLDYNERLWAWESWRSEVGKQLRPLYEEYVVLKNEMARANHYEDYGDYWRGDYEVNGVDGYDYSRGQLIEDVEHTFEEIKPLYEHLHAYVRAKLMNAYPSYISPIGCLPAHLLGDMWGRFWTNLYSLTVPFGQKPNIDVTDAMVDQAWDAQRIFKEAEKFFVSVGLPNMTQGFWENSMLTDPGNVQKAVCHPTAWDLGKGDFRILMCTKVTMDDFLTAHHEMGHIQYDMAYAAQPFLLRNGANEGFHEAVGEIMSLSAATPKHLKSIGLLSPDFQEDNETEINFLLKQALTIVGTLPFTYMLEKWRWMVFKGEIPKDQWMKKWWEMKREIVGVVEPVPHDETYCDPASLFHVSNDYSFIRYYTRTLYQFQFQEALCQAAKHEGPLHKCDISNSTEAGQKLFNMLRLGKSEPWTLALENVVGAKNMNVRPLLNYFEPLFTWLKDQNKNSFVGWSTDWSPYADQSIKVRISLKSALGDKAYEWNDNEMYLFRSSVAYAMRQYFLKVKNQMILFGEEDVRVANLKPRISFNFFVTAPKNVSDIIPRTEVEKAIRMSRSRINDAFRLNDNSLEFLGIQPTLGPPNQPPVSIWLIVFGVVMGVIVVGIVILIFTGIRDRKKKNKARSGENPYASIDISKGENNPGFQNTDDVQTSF
# Procedure: Biotin switch was performed as described above. […] The samples were desalted using a ZebaSpin desalting column (Thermo Scientific) pre-equilibrated with PBS, and biotinylated ACE2 protein was immunoprecipitated as described above. Immunoprecipitated ACE2 was eluted in 1% SDS solution and precipitated using methanol-chloroform. Dried pellets were dissolved in 8 M urea/100 mM triethylammonium bicarbonate (TEAB, pH 8.5). Samples were diluted to 2 M urea/100 mM TEAB, and proteins were trypsin digested overnight at 37° C. The digested ACE2 peptides were enriched a second time by biotin-avidin affinity to enrich biotinylated peptides representing the initial SNO sites. After avidin enrichment, peptides were eluted by reduction using tris(2-carboxyethyl)phosphine (TCEP).
# Samples were analyzed on a Thermo Orbitrap Eclipse mass spectrometer (Thermo). Samples were injected directly onto a 25 cm, 100 μm ID column packed with ethylene bridged hybrid (BEH) 1.7 μm C18 resin (Waters). Samples were separated at a flow rate of 300 nl/min on a nLC 1200 (Thermo) using a gradient of solution A (0.1% formic acid in water, 5% acetonitrile) and solution B (80% acetonitrile/0.1% formic acid). Specifically, a gradient of 1-25% B over 100 min, an increase to 40% B over 20 min, an increase to 100% B over another 10 min and held at […] for a 10 min was used for a 140 min total run time. […]
# [2] = Severe acute respiratory syndrome coronavirus 2, HeLa-ACE2, 24 h
# Chain of SARS-CoV-2 envelope (E) protein (P0DTC4 whole entry, looked up): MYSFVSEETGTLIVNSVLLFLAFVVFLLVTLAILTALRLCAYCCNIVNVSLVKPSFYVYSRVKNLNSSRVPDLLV
SMILES,Selectivity Index CC50/EC50 (SARS-CoV-2),EC50 (SARS-CoV-2; [2]) [µM],EC50 (SARS-CoV-2) [µM],CC50 (host cell cytotoxicity) (HeLa-ACE2 cells) [µM],also measured
Cc1cccc(/C=N/Nc2cc(N3CCOCC3)nc(OCCc3ccccn3)n2)c1 [Apilimod],>332.11,0.0072,–,–,–
"CC12CC3CC(C)(C1)CC(N)(C3)C2 [NMT1, memantine]",2.69,53.9,–,–,Inhibition of E protein voltage-dependent K+ current [1]: inhibited in a dose-dependent manner
CCC12CC3CC(N)(C1)CC(CO[N+](=O)[O-])(C3)C2 (stereo not shown) [NMT2],–,–,21.9,122,–
"NC12CC3CC(CC(C3)C1)C2 [NMT4, amantadine]",>2.86,70,–,–,–
CC12CC3(C)CC(CCN)(C1)CC(CO[N+](=O)[O-])(C2)C3 [NMT6],–,–,3.32,10.5,–
NCC1(c2cccc(O[N+](=O)[O-])c2)C2CC3CC(C2)CC1C3 (stereo not shown) [NMT7],–,–,90.7,> 200,–
CCC(O[N+](=O)[O-])C12CC3(C)CC(C)(CC(CCN)(C3)C1)C2 (stereo not shown) [NMT8],–,–,3.75,8.37,–
CC12CC3(C)CC(CN)(C1)CC(O[N+](=O)[O-])(C2)C3 [NMT9],–,–,> 200,> 200,–
COc1ccc(C[C@H](N)C(=O)N[C@H]2[C@@H](O)[C@H](n3cnc4c(N(C)C)ncnc43)O[C@@H]2CO)cc1 [Puromycin],0.728,0.617,–,–,–
CCC(CC)COC(=O)[C@H](C)N[P@](=O)(OC[C@H]1O[C@@](C#N)(c2ccc3c(N)ncnn23)[C@H](O)[C@@H]1O)Oc1ccccc1 [Remdesivir],>16.94,0.142,–,–,–
N[C@@H](CSN=O)C(=O)O [SNOC],–,–,–,–,S-nitrosylated ACE2 sites by mass spectrometry (ACE2): S-nitrosylated ACE2 at Cys^261 and Cys^496
